Laboratory results reported in patent US12509454B2, “Thiadiazolyl derivatives” (IDEAYA Biosciences, Inc., priority 2019, dated 2025).

Molecular target: Pol theta (1-899) (Homo sapiens (Human), UniProt O75417)
Assay: Pol theta ATPase activity, NADH oxidation-coupled enzymatic assay
Assay type: biochemical
Details: Pol theta (1-899) 10 nM, ATP, dT50 ssDNA, absorbance 340 nm, 10-point dilution series; read-out: ATPase NADH coupling:Standard Screening:hPolQ IC50
Procedure, shortened: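 Pol theta (1-899), 10 nM, preincubated 15 min at RT with 10-point compound series in Tris pH 7.80/KCl/MgCl2 buffer, then given 100 μM ATP plus 300 nM dT50 ssDNA with PK/LDH-coupled NADH oxidation. A340 followed for 30 min; rate slopes fitted with a four-parameter model for IC50.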

Pol theta (1-899), sequence (O75417 1-899): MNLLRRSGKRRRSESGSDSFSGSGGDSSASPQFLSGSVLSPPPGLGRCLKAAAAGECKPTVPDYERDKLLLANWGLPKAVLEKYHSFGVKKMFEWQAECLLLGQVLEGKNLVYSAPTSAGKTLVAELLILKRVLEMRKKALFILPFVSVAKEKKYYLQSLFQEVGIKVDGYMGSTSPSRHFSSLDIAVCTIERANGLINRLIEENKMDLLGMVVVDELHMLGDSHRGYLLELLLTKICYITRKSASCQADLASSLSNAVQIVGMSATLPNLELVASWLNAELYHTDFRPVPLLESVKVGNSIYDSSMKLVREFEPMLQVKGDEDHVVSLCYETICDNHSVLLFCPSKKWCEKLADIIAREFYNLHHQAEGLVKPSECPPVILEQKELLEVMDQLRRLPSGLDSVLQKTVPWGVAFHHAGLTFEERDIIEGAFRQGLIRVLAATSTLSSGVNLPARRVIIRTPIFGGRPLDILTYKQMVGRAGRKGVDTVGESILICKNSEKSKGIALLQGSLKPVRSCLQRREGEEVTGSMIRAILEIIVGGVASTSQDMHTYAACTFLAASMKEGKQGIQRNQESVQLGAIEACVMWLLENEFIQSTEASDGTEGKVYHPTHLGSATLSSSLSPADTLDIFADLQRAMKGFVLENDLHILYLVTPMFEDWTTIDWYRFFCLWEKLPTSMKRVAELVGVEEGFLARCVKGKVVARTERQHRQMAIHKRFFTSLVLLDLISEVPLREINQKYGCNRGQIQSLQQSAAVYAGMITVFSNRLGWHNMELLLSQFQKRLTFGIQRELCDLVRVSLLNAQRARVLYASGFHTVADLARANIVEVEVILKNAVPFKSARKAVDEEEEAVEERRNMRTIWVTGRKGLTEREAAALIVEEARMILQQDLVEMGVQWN

SMILES | IC50
O=C(Nc1nnc(OCc2ccc(Cl)cc2)s1)c1ccc(Br)nc1N1CCOCC1 [Example 58, 6-bromo-N-(5-((4-chlorobenzyl)oxy)-1,3,4-thiadiazol-2-yl)-2-morpholinonicotinamide] | 500 to 1000 nM
COc1ccccc1-c1ccncc1C(=O)Nc1nnc(OCc2ccc(Br)cc2)s1 [Example 153, N-[5-[(4-bromophenyl)methoxy]-1,3,4-thiadiazol-2-yl]-4-(2-methoxyphenyl)pyridine-3-carboxamide] | ≤ 200 nM
CNC(=O)c1cc(N2CCNC(=O)CC2)c(C(=O)Nc2nnc(OCc3ccc(Cl)cc3)s2)cn1 [Example 87, N^5-(5-((4-chlorobenzyl)oxy)-1,3,4-thiadiazol-2-yl)-N2-methyl-4-(5-oxo-1,4-diazepan-1-yl)pyridine-2,5-dicarboxamide] | 500 to 1000 nM
N#Cc1ccc(C(=O)Nc2nnc(OCc3ccc(Cl)cc3)s2)c(N2CCNC(=O)C2)n1 [Example 76, N-(5-((4-chlorobenzyl)oxy)-1,3,4-thiadiazol-2-yl)-6-cyano-2-(3-oxopiperazin-1-yl)nicotinamide] | ≤ 200 nM
COc1ccc(-n2cncc2C(=O)Nc2nnc(OCc3ccc(Cl)cc3)s2)c(OC)c1 [Example 31, N-(5-((4-chlorobenzyl)oxy)-1,3,4-thiadiazol-2-yl)-1-(2,4-dimethoxyphenyl)-1H-imidazole-5-carboxamide] | ≤ 200 nM
O=C(Nc1nnc(OCc2ccc(Cl)cn2)s1)c1ccnn1-c1ccccc1 [Example 24, N-(5-((5-chloropyridin-2-yl)methoxy)-1,3,4-thiadiazol-2-yl)-1-phenyl-1H-pyrazole-5-carboxamide] | 1000 to 10000 nM
COc1cccc(-n2cncc2C(=O)Nc2nnc(OCc3ccc(Cl)cc3)s2)c1 [Example 49, N-(5-((4-chlorobenzyl)oxy)-1,3,4-thiadiazol-2-yl)-1-(3-methoxyphenyl)-1H-imidazole-5-carboxamide] | 500 to 1000 nM
COc1cccc(F)c1-c1cc(C#N)ncc1C(=O)Nc1nnc(OCc2ccc(Cl)cc2)s1 [Example 185, N-(5-((4-chlorobenzyl)oxy)-1,3,4-thiadiazol-2-yl)-6-cyano-4-(2-fluoro-6-methoxyphenyl)nicotinamide] | ≤ 200 nM
COc1cnccc1-c1cc(C)ncc1C(=O)Nc1nnc(OCc2ccc(Cl)cn2)s1 [Example 194, N-(5-((5-chloropyridin-2-yl)methoxy)-1,3,4-thiadiazol-2-yl)-3′-methoxy-6-methyl-[4,4′-bipyridine]-3-carboxamide] | ≤ 200 nM
Cc1cc(-c2c(F)cccc2OC(F)F)c(C(=O)Nc2nnc(OCc3ccc(Cl)cn3)s2)cn1 [Example 190, N-(5-((5-chloropyridin-2-yl)methoxy)-1,3,4-thiadiazol-2-yl)-4-(2-(difluoromethoxy)-6-fluorophenyl)-6-methylnicotinamide] | ≤ 200 nM
COc1ccccc1-c1cc(C)ncc1C(=O)Nc1nnc(OCc2ccc(C3CC3)cn2)s1 [Example 214, N-(5-((5-cyclopropylpyridin-2-yl)methoxy)-1,3,4-thiadiazol-2-yl)-4-(2-methoxyphenyl)-6-methylnicotinamide] | ≤ 200 nM
CCc1ccccc1-c1cnccc1C(=O)Nc1nnc(OCc2ccc(Cl)cc2)s1 [Example 135, N-[5-[(4-chlorophenyl)methoxy]-1,3,4-thiadiazol-2-yl]-3-(2-ethylphenyl)pyridine-4-carboxamide] | ≤ 200 nM
